What was measured:
Type in all cases: biochemical
p110γ = p110γ (Homo sapiens, UniProt P48736); assay: Transcreener KINASE Assay, kinase inhibition of p110γ; conditions: for PI3Kγ IH % @ 1 uM: 1 uM test compound; for IC50: read-out: PI3Kγ IC50
How it was run: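 Steps: enzyme reaction with compound, 80 min at room temperature; add ADP detection reagent, incubate 60 min at room temperature; read fluorescence polarization. Inhibition and IC50 values are derived from the ADP signal.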

p110δ/p85α = p110δ/p85α (Homo sapiens, UniProt O00329); assay: Transcreener KINASE Assay, kinase inhibition of p110δ/p85α; conditions: for PI3Kδ IH % @ 1 uM: 1 uM test compound; for IC50: read-out: PI3Kδ IC50
How it was run: (§1)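 Recombinant human PI3K heterodimers (p110/p85α) incubated with compound (2% DMSO final) in HEPES/NaCl/EGTA/CHAPS/MgCl2/DTT buffer with 30 uM PIP2 and 10 uM ATP (as added) for 80 min at room temperature.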

p110β/p85α = p110β/p85α (Homo sapiens, UniProt P42338); assay: Transcreener KINASE Assay, kinase inhibition of p110β/p85α; conditions: for PI3Kβ IH % @ 1 uM: 1 uM test compound; for IC50: read-out: PI3Kβ IC50
How it was run: as §1

Sequence of p110γ (P48736 whole entry): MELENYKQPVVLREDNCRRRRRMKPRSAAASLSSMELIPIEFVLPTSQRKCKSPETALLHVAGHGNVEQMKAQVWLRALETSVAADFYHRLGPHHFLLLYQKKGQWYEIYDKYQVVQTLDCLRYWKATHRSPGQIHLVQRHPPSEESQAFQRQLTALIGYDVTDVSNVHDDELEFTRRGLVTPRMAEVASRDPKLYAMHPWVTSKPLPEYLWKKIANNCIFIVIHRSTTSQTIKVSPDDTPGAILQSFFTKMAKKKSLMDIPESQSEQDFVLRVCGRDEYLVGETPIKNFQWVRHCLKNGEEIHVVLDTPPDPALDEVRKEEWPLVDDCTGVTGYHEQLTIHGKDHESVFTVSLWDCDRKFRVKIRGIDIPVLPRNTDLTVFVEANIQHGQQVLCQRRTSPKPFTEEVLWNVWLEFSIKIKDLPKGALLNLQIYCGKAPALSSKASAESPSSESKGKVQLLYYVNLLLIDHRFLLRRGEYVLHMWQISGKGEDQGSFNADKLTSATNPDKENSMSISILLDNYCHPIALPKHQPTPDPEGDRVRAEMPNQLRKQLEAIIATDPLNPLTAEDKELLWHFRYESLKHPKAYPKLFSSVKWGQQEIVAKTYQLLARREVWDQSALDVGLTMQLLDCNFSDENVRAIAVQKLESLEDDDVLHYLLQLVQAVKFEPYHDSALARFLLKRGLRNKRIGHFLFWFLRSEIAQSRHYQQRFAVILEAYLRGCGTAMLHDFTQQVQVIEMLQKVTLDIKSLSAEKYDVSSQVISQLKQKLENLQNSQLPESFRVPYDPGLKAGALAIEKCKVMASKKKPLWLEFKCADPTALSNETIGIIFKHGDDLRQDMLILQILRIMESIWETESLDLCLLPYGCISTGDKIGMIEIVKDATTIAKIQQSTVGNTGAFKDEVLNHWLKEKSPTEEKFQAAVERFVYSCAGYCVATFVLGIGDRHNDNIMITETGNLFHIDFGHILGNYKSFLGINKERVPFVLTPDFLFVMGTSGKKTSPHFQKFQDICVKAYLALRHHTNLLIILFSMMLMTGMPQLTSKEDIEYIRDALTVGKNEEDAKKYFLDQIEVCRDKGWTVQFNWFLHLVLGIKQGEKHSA
Sequence of p110δ/p85α (O00329 whole entry): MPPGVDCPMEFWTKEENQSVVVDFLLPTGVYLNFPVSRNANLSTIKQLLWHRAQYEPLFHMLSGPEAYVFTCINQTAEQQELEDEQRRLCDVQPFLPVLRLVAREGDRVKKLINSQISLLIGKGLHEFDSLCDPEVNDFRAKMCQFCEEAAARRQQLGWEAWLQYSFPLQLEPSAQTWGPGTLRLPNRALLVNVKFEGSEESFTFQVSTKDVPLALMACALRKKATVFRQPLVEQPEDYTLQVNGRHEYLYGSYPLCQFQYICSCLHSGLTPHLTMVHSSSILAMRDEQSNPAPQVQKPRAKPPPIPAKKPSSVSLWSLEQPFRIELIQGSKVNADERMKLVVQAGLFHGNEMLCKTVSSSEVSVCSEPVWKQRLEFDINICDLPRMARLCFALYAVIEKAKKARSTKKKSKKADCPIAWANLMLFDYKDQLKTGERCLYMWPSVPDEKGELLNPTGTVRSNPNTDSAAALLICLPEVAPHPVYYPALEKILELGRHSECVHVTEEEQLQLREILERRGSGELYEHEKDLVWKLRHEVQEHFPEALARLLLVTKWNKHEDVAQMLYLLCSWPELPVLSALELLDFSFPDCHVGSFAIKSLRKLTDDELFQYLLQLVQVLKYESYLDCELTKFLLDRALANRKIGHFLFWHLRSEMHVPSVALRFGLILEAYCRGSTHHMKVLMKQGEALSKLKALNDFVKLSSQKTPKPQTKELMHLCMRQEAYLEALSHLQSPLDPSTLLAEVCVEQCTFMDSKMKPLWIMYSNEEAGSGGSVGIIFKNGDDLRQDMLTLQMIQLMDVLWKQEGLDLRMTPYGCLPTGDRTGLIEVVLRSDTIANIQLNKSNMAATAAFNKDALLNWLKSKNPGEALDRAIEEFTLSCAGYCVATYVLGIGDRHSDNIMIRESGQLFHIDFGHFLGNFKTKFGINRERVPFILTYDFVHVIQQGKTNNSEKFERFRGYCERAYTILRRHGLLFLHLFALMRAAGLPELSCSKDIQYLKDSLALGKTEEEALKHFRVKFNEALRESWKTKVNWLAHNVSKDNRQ
Sequence of p110δ/p85α (P27986 whole entry partner): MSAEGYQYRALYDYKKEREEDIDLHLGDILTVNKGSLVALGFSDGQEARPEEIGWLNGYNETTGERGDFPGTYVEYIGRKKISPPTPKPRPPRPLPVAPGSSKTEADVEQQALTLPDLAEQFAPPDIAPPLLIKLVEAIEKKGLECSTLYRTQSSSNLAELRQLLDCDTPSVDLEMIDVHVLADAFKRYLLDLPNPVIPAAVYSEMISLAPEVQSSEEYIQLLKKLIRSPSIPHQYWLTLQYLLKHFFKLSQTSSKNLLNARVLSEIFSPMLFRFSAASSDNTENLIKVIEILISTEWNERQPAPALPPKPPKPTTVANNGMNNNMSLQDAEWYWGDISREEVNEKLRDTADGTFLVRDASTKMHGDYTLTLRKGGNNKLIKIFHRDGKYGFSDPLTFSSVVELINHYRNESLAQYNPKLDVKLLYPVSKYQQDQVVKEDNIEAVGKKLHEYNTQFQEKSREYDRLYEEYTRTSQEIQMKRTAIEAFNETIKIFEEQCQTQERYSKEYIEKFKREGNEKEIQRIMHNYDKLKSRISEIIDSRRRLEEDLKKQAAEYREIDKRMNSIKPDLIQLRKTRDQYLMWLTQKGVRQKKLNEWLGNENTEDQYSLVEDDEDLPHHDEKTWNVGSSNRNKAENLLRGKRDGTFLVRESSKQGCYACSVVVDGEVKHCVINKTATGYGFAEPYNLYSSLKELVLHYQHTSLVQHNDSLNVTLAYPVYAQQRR
Sequence of p110β/p85α (P42338 whole entry): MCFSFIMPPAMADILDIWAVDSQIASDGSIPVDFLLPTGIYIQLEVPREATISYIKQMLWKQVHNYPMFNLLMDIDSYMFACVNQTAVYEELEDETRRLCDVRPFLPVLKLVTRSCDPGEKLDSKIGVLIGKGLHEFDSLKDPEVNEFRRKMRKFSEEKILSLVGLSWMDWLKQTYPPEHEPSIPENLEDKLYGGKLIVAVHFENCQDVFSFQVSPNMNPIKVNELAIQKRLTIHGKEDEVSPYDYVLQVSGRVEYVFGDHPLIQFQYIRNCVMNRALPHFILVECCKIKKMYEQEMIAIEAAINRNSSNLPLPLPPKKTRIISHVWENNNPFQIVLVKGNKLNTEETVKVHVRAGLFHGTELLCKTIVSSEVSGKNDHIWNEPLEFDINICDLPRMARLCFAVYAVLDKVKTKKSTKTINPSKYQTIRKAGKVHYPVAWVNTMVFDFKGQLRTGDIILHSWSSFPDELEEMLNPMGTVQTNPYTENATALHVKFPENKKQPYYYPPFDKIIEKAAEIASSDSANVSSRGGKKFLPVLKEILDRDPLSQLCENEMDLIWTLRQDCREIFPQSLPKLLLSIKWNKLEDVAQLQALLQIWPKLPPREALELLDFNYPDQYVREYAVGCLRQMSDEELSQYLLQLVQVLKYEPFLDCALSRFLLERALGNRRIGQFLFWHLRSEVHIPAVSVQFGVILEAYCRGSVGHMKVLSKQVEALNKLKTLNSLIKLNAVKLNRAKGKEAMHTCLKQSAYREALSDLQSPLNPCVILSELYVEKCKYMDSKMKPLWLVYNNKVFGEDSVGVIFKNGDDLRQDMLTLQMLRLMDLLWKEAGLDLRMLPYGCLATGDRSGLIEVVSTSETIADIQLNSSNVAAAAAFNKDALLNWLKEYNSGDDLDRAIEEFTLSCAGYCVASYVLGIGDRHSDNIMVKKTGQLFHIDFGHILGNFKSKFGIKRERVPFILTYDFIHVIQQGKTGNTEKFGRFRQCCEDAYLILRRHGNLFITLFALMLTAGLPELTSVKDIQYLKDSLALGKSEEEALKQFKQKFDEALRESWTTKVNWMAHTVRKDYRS
Sequence of p110β/p85α (P27986 2-724 partner): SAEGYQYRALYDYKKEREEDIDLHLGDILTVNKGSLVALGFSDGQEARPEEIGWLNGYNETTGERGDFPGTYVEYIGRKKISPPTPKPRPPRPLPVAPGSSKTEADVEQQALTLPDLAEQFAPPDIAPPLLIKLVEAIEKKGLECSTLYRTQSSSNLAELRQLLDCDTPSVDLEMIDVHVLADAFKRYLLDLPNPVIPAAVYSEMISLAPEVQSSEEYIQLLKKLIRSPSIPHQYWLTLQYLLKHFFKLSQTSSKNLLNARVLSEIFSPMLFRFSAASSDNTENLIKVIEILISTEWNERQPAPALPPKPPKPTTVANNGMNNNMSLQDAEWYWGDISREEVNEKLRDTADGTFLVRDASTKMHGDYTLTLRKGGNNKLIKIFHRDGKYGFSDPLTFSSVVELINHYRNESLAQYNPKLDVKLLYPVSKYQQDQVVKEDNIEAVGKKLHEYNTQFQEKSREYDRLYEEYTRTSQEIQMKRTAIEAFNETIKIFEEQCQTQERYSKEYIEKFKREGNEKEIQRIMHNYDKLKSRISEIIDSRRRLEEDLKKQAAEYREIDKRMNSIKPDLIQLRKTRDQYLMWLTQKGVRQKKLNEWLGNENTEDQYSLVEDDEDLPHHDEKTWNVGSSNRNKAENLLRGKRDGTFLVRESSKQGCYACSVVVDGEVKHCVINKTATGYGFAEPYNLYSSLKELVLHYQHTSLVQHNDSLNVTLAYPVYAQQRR

| SMILES | PI3Kγ IH % @ 1 uM (p110γ) [%] | PI3Kδ IH % @ 1 uM (p110δ/p85α) [%] | IC50 (p110δ/p85α) [nM] | PI3Kβ IH % @ 1 uM (p110β/p85α) [%] | IC50 (p110γ) [nM] | IC50 (p110β/p85α) [nM] |
| --- | --- | --- | --- | --- | --- | --- |
| Nc1nc(N2CC(F)(F)C[C@H]2c2nn3ccc(Cl)c3c(=O)n2-c2ccccc2)n2nccc2n1 [Compound 136] | 95.0 | 83.5 | 124 | 27.6 | 42 | – |
| COCCNC(=O)c1c[nH]c2ncnc(N3CCC[C@H]3c3nn4ccc(Cl)c4c(=O)n3-c3ccccc3)c12 [Compound 226] | >100 | 98.7 | 9 | 41.8 | 30 | – |
| N#Cc1ccc(-c2n[nH]c3ncnc(N4CC[C@H]4c4nn5ccc(Cl)c5c(=O)n4-c4ccccc4)c23)cn1 [Compound 173] | 48.7 | 96.3 | 4 | 25.7 | – | – |
| CC(=O)c1c[nH]c2ncnc(N[C@@H](C)c3cn4ccc(F)c4c(=O)n3-c3ccccc3)c12 [Compound 406, (S)-3-(1-((5-acetyl-7H-pyrrolo[2,3-d]pyrimidin-4-yl)amino)ethyl)-8-fluoro-2-phenylpyrrolo[1,2-a]pyrazin-1(2H)-one] | 35.2 | 90.0 | 73 | 7.7 | – | – |
| CO[C@H]1C[C@@H](c2nn3ccc(Cl)c3c(=O)n2-c2ccccc2)N(c2ncnc3[nH]cnc23)C1 [Compound 263] | >100 | >100 | 4 | 74.5 | 17 | 118 |
| N#Cc1cnc(N)nc1N1C[C@@H](F)C[C@H]1c1nn2ccc(F)c2c(=O)n1-c1ccccc1 [Compound 227] | >100 | >100 | 5 | 59.6 | 18 | – |
| N#Cc1c[nH]c2ncnc(N3CC[C@H]3c3nn4ccc(Cl)c4c(=O)n3Cc3ccccn3)c12 [Compound 60] | 29.5 | 69.0 | 325 | 3.2 | – | – |
| CC(Nc1ncnc2[nH]cc(C#N)c12)c1cc2ncc(Cl)n2c(=O)n1-c1ccccc1 (stereo not shown) [Compound 116] | 96.9 | >100 | 5 | >100 | 45 | 128 |
| NC(=O)c1ccn2nc([C@@H]3CCCN3c3ncnc4[nH]cnc34)n(-c3ccccc3)c(=O)c12 [Compound 139, (S)-2-(1-(9H-purin-6-yl)pyrrolidin-2-yl)-4-oxo-3-phenyl-3,4-dihydropyrrolo[2,1-f][1,2,4]triazine-5-carboxamide] | 46.5 | 64.8 | – | 18.0 | – | – |
| O=C(NCCO)c1c[nH]c2ncnc(N3CC[C@H]3c3nn4ccc(Cl)c4c(=O)n3-c3ccccc3)c12 [Compound 304] | 93.6 | 98.2 | 42 | 47.4 | – | – |
| CC(=O)c1cnc(N)nc1N1CC[C@@H]1c1nn2ccc(Cl)c2c(=O)n1-c1ccccc1 [Compound 470] | 36.6 | 27.8 | – | 4.9 | – | – |
| CC(Nc1ncnc2[nH]cc(F)c12)c1cc2ncc(Cl)n2c(=O)n1-c1ccccc1 (single isomer, unassigned) [Compound 451] | 40.5 | 96.4 | – | 4.2 | – | – |
| CC(=O)c1cnc(N)nc1N1CCCC1c1cn2ccc(Cl)c2c(=O)n1-c1ccccc1 (stereo not shown) [Compound 321] | >100 | 100.0 | 5 | 80.5 | 11 | 218 |

Results, then the molecule that gave them:

| PI3Kγ IH % @ 1 uM (p110γ) [%] | PI3Kδ IH % @ 1 uM (p110δ/p85α) [%] | IC50 (p110δ/p85α) [nM] | PI3Kβ IH % @ 1 uM (p110β/p85α) [%] | IC50 (p110γ) [nM] | IC50 (p110β/p85α) [nM] | SMILES |
| --- | --- | --- | --- | --- | --- | --- |
| 66.5 | 96.1 | 5 | 4.6 | – | – | COc1ccc(-c2n[nH]c3ncnc(N4CC[C@H]4c4nn5ccc(Cl)c5c(=O)n4-c4ccccc4)c23)cn1 [Compound 170] |
| 22.8 | 52.4 | – | 11.4 | – | – | COCc1ccn2nc([C@@H]3CCCN3c3nc(N)ncc3C(F)(F)F)n(-c3ccccc3)c(=O)c12 [Compound 151] |
| 45.8 | 73.6 | 392 | 34.7 | – | – | N#Cc1c[nH]c2ncnc(N3CC[C@H]3c3nn4ccc(Cl)c4c(=O)n3CC(F)F)c12 [Compound 59, (S)-4-(2-(5-chloro-3-(2,2-difluoroethyl)-4-oxo-3,4-dihydropyrrolo[2,1-f][1,2,4]triazin-2-yl)azetidin-1-yl)-7H-pyrrolo[2,3-d]pyrimidine-5-carbonitrile] |
| 74.2 | 95.9 | 52 | −35.9 | 348 | – | COCc1ccn2nc([C@@H]3CCCN3c3ncnc4[nH]cnc34)n(-c3ccccc3)c(=O)c12 [Compound 149] |
| 95.6 | 93.7 | 3 | 31.1 | 10 | – | N#Cc1cnc(N)nc1N1CC(=O)C[C@H]1c1nn2ccc(Cl)c2c(=O)n1-c1cccc(F)c1 [Compound 404] |
| >100 | 97.9 | 25 | 79.2 | 27 | 103 | N#C[C@H]1C[C@@H](c2nn3ccc(Cl)c3c(=O)n2-c2ccc(F)cc2)N(c2ncnc3[nH]cnc23)C1 [Compound 361] |
| 90.5 | 91.4 | 185 | 0.1 | 129 | – | C[S@@+]([O-])c1c[nH]c2ncnc(N3CC[C@H]3c3nn4ccc(Cl)c4c(=O)n3-c3ccccn3)c12 [Compound 391, 5-chloro-2-((S)-1-(5-((R)-methylsulfinyl)-7H-pyrrolo[2,3-d]pyrimidin-4-yl)azetidin-2-yl)-3-(pyridin-2-yl)pyrrolo[2,1-f][1,2,4]triazin-4(3H)-one] |
| >100 | >100 | 11 | 92.8 | 29 | 16 | C/C(=N\O)c1c[nH]c2ncnc(N3CCC[C@H]3c3nn4ccc(Cl)c4c(=O)n3-c3ccccc3)c12 [Compound 306, (S)-5-chloro-2-(1-(5-(1-(hydroxyimino)ethyl)-7H-pyrrolo[2,3-d]pyrimidin-4-yl)pyrrolidin-2-yl)-3-phenylpyrrolo[2,1-f][1,2,4]triazin-4(3H)-one] |
| 69.5 | 48.4 | – | 17.0 | – | – | Nc1nc(N2CCC[C@H]2c2nn3ccc(Cl)c3c(=O)n2-c2ccccc2)c2ncccc2n1 [Compound 335] |
| >100 | >100 | 2 | 82.4 | 18 | 80 | N#Cc1c[nH]c2ncnc(N3CCC[C@H]3c3nn4ccc(Cl)c4c(=O)n3CC3CC3)c12 [Compound 257] |
| >100 | 98.1 | 34 | 45.0 | 36 | – | Nc1ncc([N+](=O)[O-])c(N2CCC[C@H]2c2nn3ccc(Cl)c3c(=O)n2-c2ccccc2)n1 [Compound 240] |
| 45.2 | >100 | 96 | −2.1 | – | – | CC(=O)c1cnc(N)nc1N1CC(C)(C)[C@H]1c1nn2ccc(Cl)c2c(=O)n1-c1ccccc1 [Compound 485, (S)-2-(1-(5-acetyl-2-aminopyrimidin-4-yl)-3,3-dimethylazetidin-2-yl)-5-chloro-3-phenylpyrrolo[2,1-f][1,2,4]triazin-4(3H)-one] |
| 97.6 | >100 | 5 | 45.5 | 73 | – | N#Cc1c[nH]c2ncnc(N3CC(F)(F)C[C@H]3c3nn4ccc(Cl)c4c(=O)n3-c3ccccc3)c12 [Compound 58] |
| 90.0 | 75.9 | – | 26.9 | – | – | COc1ccc(-c2c(N)ncnc2N2CC[C@H]2c2nn3ccc(Cl)c3c(=O)n2-c2ccccc2)cn1 [Compound 108, (S)-2-(1-(6-amino-5-(6-methoxypyridin-3-yl)pyrimidin-4-yl)azetidin-2-yl)-5-chloro-3-phenylpyrrolo[2,1-f][1,2,4]triazin-4(3H)-one] |
| 94.6 | 97.2 | 1 | 92.7 | 1 | 21 | O=c1c2c(Cl)ccn2nc([C@@H]2CCCN2c2ncnc3[nH]cc(C4=NCCO4)c23)n1-c1ccccc1 [Compound 303, (S)-5-chloro-2-(1-(5-(4,5-dihydrooxazol-2-yl)-7H-pyrrolo[2,3-d]pyrimidin-4-yl)pyrrolidin-2-yl)-3-phenylpyrrolo[2,1-f][1,2,4]triazin-4(3H)-one] |
| 85.5 | 94.8 | 85 | 57.3 | 81 | – | O=c1c2c(Cl)ccn2nc([C@@H]2CCCN2c2ncnc3[nH]cnc23)n1-c1ccncn1 [Compound 344] |
| 92.3 | >100 | 3 | 86.5 | 2 | 332 | CC(=O)c1c[nH]c2ncnc(N[C@H](C)c3cn4ccc(F)c4c(=O)n3-c3ccccc3)c12 [Compound 405, (R)-3-(1-((5-acetyl-7H-pyrrolo[2,3-d]pyrimidin-4-yl)amino)ethyl)-8-fluoro-2-phenylpyrrolo[1,2-a]pyrazin-1(2H)-one] |

— US20150307520A1, “NOVEL HETEROARYL AND HETEROCYCLE COMPOUNDS, COMPOSITIONS AND METHODS THEREOF” (HUTCHISON MEDIPHARMA LIMITED, priority 2012, published 2015)
